The values that follow come from patent US7932382B2, “Conformationally constrained Smac mimetics and the uses thereof” (The Regents of the University of Michigan, priority 2005, dated 2011).

Where a SMILES comes first, the peptide text is derived from it. [ ]: non-standard residue; d: D form. The star is where a group is joined. 6FAM = O=C1OC2(c3ccc(O)cc3Oc3cc(O)ccc32)c2cc(C(=O)*)ccc21; Abu = CC[C@H](N)C(=O)O

One assay relates to PC-3 cells. Put plainly: Apoptosis by Annexin V-FITC staining in PC-3 cells. The assay is classed as cell-based, human. Particulars: for potentiation of the activity of CDDP in inducing apoptosis: PC-3 cells. The procedure:
PC-3 cells were treated with CDDP, Smac peptides and mimetics alone or in combination for 42 hours and apoptosis was analyzed by Annexin V-FITC staining. […] Combination of 25 μM CDDP and 10 μM or 25 μM SH-97 induced 29.3%±1.9% and 35.8%±0.4% apoptosis over control cells, respectively (FIG. 10A).
Similar experiments were performed with SH-102 (Table 5). PC-3 cells in 6-well plates were treated with SH-102 and CDDP, alone or on combination, for 42 hours. Cells were collected and stained with Annexin V-FITC and propidium iodide. The fluorescence of Annexin V-FITC and propidium iodide of individual cells was analyzed by flow cytometry. […] Combination of 25 μM CDDP and 10 μM SH-102 induced 32% apoptosis over control cells (FIG. 11).
The same experiment was performed using TAXOTERE (docetaxel), another cancer chemotherapeutic drug. PC-3 cells in 6-well plates were treated with SH-102 and TAXOTERE, alone or in combination, for 42 hours. Cells were collected and stained with Annexin V-FITC and propidium iodide. The fluorescence of Annexin V-FITC and propidium iodide of individual cells was analyzed by flow cytometry. […] Combination of 10 μM taxotere and 10 μM SH-102 induced about 18% apoptosis over control cells (FIG. 13).

For the next assay, the system named is MDA-231 cells. Put plainly: Apoptosis by Annexin V-FITC/propidium iodide flow cytometry in MDA-231 cells. Particulars: for cells undergoing apoptosis as compared to control cells: 42 hours; for potentiation of the activity of CDDP in inducing apoptosis: MDA-231 cells. The format is cell-based, human. The procedure:
Similar experiments were performed using the breast cancer cell line MDA-231. MDA-231 cells in 6-well plates were treated with SH-102 and CDDP, alone or on combination, for 42 hours. Cells were collected and stained with Annexin V-FITC and propidium iodide. The fluorescence of Annexin V-FITC and propidium iodide of individual cells was analyzed by flow cytometry. 25 μM and 50 μM CDDP induced about 25% and 42% of MDA-231 cells to undergo apoptosis as compared to control cells, respectively (FIG. 14). […] Combination of 25 and 50 μM CDDP and 10 μM SH-102 induced about 35% and 75% apoptosis over control cells, respectively (FIG. 14).
(In flow cytometry, cells or beads pass a laser one at a time.)

Assay [1] concerns the target T1, human XIAP-BIR3 protein (residues 241-356) (Homo sapiens, UniProt P98170). Description: biochemical.
Assay [2] has as its target T1, human XIAP-BIR3 protein (residues 241-356). Description: Fluorescence polarization saturation (direct) binding of labeled Smac peptides. Set-up: The human XIAP-BIR3 protein (residues 241-356) with a His tag. Particulars: 5 nM labeled peptide titrated with 0 to 40 μM protein; read-out: Kd value (dissociation constant to XIAP-BIR3). A general note: Fluorescence polarisation rises when a labelled molecule tumbles more slowly, as on binding a larger partner.

Assay [3] relates to MDA-435, MDA468, and T47D cells. Description: Cell growth inhibition (WST-8) in breast cancer cell lines. The assay is classed as cell-based, human. Particulars: all three cell lines, 5 days. The procedure:
To test the effect of Smac mimetics by themselves in inhibition of cell growth in human cancer cells, SH-102 was administered to three different breast cancer cell lines. MDA-435, MDA468, and T47D cells were seeded in 96-well plates with increasing concentrations of SH-102, Smac8, or Smac8-C. The cells were then incubated at 37° C. with 5% CO2 for 5 days, followed by detection of cell viability with WST-8. Untreated cells were used as 100% growth. […]. […] (FIGS. 18A-18C).
(In general: Formazan colour is commonly taken as a measure of viable cells.)

In the next assay the target is XIAP (Homo sapiens, UniProt P98170). Particulars: cited from earlier work.
Sequence of XIAP (P98170 whole entry): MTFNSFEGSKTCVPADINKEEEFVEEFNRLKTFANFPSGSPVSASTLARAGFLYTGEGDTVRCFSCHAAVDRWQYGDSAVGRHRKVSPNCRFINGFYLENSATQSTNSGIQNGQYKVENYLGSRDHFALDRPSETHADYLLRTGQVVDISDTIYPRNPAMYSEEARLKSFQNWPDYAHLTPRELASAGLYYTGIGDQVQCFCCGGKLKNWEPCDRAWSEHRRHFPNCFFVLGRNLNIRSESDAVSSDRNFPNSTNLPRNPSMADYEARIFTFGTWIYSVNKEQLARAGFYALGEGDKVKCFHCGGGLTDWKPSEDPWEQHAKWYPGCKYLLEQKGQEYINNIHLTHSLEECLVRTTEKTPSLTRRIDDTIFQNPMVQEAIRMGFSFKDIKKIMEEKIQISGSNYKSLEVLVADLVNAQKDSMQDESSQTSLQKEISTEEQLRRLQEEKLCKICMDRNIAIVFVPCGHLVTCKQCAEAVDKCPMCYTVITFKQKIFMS

T1 sequence (P98170 241-356): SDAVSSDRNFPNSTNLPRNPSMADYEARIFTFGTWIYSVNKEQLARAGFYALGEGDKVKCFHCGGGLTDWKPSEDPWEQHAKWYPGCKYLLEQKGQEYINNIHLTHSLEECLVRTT

As for `[NH2][Pt]([NH2])([Cl])[Cl]` [CDDP, cisplatin], the “cancer cells undergoing apoptosis as compared to control cells” value in the assay with PC-3 cells (50 μM CDDP alone, 42 hours) was about 25%. For the same molecule, the entries for the “cells undergoing apoptosis as compared to control cells” value in the assay with MDA-231 cells (25 μM CDDP alone) and in the assay with MDA-231 cells (50 μM CDDP alone) were “about 25%” and about 42%, respectively.

As for `CC[C@H](N)C(=O)N[C@H]1CCC[C@H]2CC[C@@H](C(=O)NC(c3ccccc3)c3ccccc3)N2C1=O` [Compound 34], the “apoptosis compared to untreated cancer cells” value with PC-3 cells (SH-102 alone up to 100 μM, 42 hours) is recorded as “did not induce significantly more apoptosis”.

For orientation: Ki means the equilibrium dissociation constant of an inhibitor or competing ligand from its target. In the case of `CCC(CC)CNC(=O)[C@@H]1CC[C@@H]2CC[C@H](NC(=O)[C@H](C)N)C(=O)N21` [SH-76], in assay [1], the inhibitory constant (Ki) was over 200000 nM.

For `CCC[C@H](N)C(=O)N[C@H]1CC[C@H]2CC[C@@H](C(=O)NCc3ccccc3)N2C1=O` [SH-93], the “potentiation of the activity of CDDP in inducing apoptosis” value in the assay on PC-3 cells and in the assay on MDA-231 cells was “unable to potentiate” in each case.

As a reminder, the Kd is the concentration at which binding is half-saturated. For the molecule `CC[C@H](N)C(=O)N[C@@H](CCCNC(=N)N)C(=O)N1CCC[C@H]1C(=O)N[C@@H](Cc1ccccc1)C(=O)N[C@@H](CCCCNC(=O)c1ccc2c(c1)C1(OC2=O)c2ccc(O)cc2Oc2cc(O)ccc21)C(N)=O` [SM5F, AbuRPFK-FAM] (H-[Abu]RPFK(6FAM)-NH2; N-terminus and C-terminus assumed), the Kd in assay [2] stood at 17.9 nM.

On to “AVPIAQKS [Smac8, Smac peptide without a carrier peptide, negative control]”, for which the “potentiation of the activity of CDDP in inducing apoptosis” value in the assay with PC-3 cells and in the assay with MDA-231 cells was “unable to potentiate” in each case. Besides, in assay [3], the “inhibition of cell growth (in words)” value is on record as “essentially ineffective”.

B1: mature Smac protein: mature Smac/DIABLO protein, endogenous inhibitor of XIAP (protein, UniProt Q9NR28 22-239, looked up)
Diablo IAP-binding …: LCVPVVANFKKRCFSELIRPWHKTVTIGFGVTLCAVPIAQKSEPHSLSSEALMRRAVSLVTDSTSTFLSQTTYALIEAITEYTKAVYTLTSLYRQYTSLLGKMNSEEEDEVWQVIIGARAEMTSKHQEYLKLETTWMTAVGLSEMAAEAAYQTGADQASITARNHIQLVKLQVEEVHQLSRKAETKLAEAQIEELRQKTQEEGEERAESEQEAYLRED
Turning to B1, the Kd in the assay with XIAP was 420 nM.
